# Measurements from publication doi:10.1101/2023.11.24.568596v1 (biorxiv, 2023).
# Legend:
# Conditions in all cases: binder
# [1] = target: Erk2 (Homo sapiens, UniProt P28482)
# [2] = target: CLK3 (Homo sapiens, UniProt P49761)
# [3] = target: JNK2 (Homo sapiens, UniProt P45984)
# [4] = target: EphA7 (Homo sapiens, UniProt Q15375)
# [5] = target: p38a (Homo sapiens, UniProt Q16539)
# [6] = target: AKT3 (Homo sapiens, UniProt Q9Y243)
# [7] = target: T1, DMPK1 (Homo sapiens, UniProt Q09013)
# T1 sequence (Q09013 1-629): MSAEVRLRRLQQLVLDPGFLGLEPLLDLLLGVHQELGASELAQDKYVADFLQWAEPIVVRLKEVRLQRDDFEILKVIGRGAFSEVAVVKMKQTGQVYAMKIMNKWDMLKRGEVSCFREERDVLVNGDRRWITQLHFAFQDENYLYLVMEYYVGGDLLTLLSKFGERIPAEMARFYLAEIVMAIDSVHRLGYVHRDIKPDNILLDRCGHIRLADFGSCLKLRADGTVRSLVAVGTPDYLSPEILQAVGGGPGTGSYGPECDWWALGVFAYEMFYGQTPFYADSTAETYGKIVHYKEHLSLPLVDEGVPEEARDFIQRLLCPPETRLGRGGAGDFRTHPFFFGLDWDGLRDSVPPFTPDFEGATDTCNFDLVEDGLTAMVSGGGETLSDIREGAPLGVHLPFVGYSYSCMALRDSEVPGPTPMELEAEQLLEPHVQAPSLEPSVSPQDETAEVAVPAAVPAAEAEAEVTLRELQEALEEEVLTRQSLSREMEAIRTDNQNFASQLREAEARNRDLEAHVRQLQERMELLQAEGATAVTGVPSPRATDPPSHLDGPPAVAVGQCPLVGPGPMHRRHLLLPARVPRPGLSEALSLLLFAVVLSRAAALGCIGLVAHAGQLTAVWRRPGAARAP
# [8] = target: MRCKa (Homo sapiens, UniProt Q5VT25)
# [9] = target: DAPK3 (Homo sapiens, UniProt O43293)
# [10] = target: CK1d (Homo sapiens, UniProt P48730)
# [11] = target: FGFR1 (Homo sapiens, UniProt P11362)
# [12] = target: PIM3 (Homo sapiens, UniProt Q86V86)
# [13] = target: FLT1 (Homo sapiens, UniProt P17948)
# [14] = target: T2, MST1 (Homo sapiens, UniProt Q13043)
# T2 sequence (Q13043 1-487): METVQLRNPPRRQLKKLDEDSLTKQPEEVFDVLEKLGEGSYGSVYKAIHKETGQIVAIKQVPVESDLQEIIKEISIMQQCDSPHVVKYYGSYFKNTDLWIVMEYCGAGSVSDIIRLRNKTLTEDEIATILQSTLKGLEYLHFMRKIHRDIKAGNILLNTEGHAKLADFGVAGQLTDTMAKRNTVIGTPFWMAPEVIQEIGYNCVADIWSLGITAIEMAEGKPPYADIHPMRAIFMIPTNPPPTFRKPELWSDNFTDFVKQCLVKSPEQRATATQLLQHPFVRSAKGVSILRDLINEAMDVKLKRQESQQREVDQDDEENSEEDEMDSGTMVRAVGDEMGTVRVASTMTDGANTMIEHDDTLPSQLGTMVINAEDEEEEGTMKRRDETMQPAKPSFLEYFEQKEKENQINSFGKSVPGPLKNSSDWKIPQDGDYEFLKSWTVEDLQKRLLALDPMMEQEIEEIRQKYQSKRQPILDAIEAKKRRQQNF
# [15] = target: MELK (Homo sapiens, UniProt Q14680)
# [16] = target: CaMK2d (Homo sapiens, UniProt Q13557)
# [17] = target: PAK4 (Homo sapiens, UniProt O96013)
# [18] = target: EphA5 (Homo sapiens, UniProt P54756)
# [19] = target: PAK1 (Homo sapiens, UniProt Q13153)
# [20] = target: CaMK1d (Homo sapiens, UniProt Q8IU85)
# Chain of CaMK1d (Q8IU85 whole entry): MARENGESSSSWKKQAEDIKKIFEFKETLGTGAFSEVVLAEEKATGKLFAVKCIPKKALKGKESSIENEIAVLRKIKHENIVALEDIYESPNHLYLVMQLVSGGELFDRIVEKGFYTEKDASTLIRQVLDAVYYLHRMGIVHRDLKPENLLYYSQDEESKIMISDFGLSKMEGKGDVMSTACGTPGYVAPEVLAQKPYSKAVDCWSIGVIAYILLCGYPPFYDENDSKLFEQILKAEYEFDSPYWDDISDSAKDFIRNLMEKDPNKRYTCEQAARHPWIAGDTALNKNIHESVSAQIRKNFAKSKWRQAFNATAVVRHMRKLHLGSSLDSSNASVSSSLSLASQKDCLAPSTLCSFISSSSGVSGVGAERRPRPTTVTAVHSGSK
# Chain of Erk2 (P28482 whole entry): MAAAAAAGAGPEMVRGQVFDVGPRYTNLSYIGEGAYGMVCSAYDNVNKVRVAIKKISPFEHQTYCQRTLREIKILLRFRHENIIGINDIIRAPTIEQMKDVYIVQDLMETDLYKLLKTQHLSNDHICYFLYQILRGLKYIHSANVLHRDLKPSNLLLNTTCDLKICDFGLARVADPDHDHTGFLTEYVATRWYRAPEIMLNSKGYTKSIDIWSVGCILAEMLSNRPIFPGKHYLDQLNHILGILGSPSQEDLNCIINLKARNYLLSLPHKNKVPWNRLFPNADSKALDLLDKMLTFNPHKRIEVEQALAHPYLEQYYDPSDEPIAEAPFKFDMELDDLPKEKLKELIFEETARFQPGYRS
# Chain of AKT3 (Q9Y243 whole entry): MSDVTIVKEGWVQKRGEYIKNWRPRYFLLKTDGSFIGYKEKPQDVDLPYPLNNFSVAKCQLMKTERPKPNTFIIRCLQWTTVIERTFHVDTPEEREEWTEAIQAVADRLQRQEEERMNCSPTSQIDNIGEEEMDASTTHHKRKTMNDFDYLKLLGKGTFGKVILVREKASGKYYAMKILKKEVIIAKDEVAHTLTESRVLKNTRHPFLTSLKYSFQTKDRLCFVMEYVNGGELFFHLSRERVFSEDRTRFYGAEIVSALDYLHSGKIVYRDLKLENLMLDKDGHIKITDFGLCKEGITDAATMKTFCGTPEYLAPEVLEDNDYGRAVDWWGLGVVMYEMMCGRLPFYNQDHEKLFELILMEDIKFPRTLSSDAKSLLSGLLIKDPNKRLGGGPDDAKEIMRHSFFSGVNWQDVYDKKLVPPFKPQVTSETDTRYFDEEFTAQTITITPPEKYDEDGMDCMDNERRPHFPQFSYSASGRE
# Chain of FLT1 (P17948 whole entry): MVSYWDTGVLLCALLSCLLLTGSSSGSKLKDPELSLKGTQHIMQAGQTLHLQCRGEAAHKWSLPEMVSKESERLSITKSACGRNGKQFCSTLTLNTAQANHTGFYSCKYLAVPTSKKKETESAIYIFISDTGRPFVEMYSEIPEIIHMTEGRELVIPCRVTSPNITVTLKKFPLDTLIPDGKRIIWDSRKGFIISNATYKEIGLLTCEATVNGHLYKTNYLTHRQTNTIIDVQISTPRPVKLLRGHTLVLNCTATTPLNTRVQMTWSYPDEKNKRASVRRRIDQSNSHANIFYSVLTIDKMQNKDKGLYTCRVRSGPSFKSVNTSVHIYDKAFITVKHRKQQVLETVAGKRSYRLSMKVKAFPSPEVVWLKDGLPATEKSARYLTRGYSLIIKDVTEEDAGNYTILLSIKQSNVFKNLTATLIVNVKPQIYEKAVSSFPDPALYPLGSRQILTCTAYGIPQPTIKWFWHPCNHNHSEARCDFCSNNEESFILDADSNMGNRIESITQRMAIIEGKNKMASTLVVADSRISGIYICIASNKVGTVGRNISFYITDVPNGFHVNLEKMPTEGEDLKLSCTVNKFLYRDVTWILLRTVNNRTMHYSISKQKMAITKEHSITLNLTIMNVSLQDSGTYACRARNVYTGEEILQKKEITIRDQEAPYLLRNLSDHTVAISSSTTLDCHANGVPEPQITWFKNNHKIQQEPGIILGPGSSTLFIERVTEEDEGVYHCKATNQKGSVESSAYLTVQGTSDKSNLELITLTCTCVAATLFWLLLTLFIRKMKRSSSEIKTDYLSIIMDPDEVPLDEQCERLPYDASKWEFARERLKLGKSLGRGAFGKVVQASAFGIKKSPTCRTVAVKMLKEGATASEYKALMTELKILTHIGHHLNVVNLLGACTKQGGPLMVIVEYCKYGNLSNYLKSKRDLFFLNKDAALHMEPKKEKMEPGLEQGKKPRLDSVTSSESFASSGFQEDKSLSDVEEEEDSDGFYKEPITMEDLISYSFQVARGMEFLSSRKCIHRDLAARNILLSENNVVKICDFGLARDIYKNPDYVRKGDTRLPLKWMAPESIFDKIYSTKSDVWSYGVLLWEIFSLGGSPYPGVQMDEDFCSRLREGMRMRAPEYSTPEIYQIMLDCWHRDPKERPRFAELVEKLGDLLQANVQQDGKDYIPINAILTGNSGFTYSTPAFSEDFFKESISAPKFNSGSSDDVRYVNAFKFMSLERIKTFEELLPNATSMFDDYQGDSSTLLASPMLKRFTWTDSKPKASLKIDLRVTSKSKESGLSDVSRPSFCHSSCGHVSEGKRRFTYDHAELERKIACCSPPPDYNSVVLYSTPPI
# Chain of CLK3 (P49761 whole entry): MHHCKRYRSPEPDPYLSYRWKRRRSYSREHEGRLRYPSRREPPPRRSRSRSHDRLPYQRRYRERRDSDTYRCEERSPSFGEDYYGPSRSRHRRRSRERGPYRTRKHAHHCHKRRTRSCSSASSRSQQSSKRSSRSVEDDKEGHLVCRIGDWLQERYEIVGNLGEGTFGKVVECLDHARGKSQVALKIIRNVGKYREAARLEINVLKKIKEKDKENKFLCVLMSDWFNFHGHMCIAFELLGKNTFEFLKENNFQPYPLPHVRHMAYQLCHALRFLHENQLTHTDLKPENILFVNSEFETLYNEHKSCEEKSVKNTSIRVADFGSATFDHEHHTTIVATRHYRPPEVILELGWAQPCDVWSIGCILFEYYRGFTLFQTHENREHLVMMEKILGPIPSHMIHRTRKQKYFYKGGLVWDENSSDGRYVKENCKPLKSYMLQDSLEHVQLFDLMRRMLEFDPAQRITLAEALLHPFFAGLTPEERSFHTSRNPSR
# Chain of CaMK2d (Q13557 whole entry): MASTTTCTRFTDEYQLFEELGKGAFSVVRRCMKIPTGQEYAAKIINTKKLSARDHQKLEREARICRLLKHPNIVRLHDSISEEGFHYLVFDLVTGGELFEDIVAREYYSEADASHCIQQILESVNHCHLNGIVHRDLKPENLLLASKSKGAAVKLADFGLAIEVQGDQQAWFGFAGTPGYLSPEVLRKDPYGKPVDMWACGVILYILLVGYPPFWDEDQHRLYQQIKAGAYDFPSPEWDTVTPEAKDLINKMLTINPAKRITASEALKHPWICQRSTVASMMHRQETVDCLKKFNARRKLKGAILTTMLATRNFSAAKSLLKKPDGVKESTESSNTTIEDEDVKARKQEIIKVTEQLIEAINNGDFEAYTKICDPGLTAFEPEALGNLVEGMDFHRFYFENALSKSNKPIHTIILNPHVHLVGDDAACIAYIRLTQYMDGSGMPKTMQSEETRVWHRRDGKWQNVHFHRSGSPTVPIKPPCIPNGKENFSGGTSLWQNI
# Chain of JNK2 (P45984 whole entry): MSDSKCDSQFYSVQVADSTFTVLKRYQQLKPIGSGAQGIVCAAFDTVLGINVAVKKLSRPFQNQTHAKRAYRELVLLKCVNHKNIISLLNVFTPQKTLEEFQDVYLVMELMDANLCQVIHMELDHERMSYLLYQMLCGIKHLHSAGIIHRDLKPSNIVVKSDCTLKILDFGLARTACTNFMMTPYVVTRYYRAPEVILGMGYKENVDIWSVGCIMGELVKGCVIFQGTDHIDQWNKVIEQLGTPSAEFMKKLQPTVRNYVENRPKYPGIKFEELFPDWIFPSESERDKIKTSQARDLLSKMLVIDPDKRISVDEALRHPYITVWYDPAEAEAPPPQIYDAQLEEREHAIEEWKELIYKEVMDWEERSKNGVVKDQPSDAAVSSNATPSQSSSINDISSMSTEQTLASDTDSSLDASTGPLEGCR
# Chain of EphA5 (P54756 whole entry): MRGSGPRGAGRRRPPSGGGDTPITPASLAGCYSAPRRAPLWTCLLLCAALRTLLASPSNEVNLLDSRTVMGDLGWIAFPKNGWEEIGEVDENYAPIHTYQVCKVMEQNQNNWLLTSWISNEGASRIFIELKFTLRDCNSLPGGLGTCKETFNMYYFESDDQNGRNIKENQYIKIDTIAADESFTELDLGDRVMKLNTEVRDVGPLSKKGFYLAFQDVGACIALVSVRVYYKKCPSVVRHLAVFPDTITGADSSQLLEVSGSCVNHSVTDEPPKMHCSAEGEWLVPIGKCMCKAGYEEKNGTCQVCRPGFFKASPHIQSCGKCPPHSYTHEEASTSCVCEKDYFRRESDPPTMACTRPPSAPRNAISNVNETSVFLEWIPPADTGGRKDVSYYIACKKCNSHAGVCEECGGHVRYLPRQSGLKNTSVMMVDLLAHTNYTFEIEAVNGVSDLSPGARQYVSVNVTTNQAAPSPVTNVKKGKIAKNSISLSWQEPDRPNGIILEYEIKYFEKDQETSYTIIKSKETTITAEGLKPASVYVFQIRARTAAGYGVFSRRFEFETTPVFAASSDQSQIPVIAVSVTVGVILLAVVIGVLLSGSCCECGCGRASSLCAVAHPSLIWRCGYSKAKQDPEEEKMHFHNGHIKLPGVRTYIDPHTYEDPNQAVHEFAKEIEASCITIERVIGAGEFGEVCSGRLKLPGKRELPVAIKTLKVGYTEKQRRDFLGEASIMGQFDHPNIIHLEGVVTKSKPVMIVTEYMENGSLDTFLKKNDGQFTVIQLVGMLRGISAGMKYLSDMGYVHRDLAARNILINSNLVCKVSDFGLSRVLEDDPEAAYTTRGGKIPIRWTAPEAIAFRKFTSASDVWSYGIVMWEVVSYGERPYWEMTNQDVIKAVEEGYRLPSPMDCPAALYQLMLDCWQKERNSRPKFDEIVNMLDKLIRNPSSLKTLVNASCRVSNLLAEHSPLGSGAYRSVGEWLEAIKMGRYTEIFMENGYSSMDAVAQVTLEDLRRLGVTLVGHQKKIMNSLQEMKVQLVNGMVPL
smiles,measurement,setting,value
"Cc1cccc(-c2ccc(-c3cc4cnc(NCCCN5CCOCC5)nc4n(CCCCN)c3=O)c(Cl)c2)n1 [compound 26, MR26]",ΔTm MR26 (26),[1],0.2 °C
same,ΔTm MR26 (26),[2],-0.4 °C
same,ΔTm MR26 (26),[3],0.0 °C
same,ΔTm MR26 (26),[4],2.7 °C
same,ΔTm MR26 (26),[5],4.0 °C
same,ΔTm MR26 (26),[6],0.8 °C
same,ΔTm MR26 (26),[7],-1.3 °C
same,ΔTm MR26 (26),[8],-0.2 °C
same,ΔTm MR26 (26),[9],0.0 °C
same,ΔTm MR26 (26),[10],1.9 °C
same,ΔTm MR26 (26),[11],0.3 °C
same,ΔTm MR26 (26),[12],-0.1 °C
same,ΔTm MR26 (26),[13],2.7 °C
same,ΔTm MR26 (26),[14],-0.5 °C
same,ΔTm MR26 (26),[15],5.0 °C
same,ΔTm MR26 (26),[16],-0.1 °C
same,ΔTm MR26 (26),[17],2.4 °C
same,ΔTm MR26 (26),[18],3.5 °C
same,ΔTm MR26 (26),[19],5.7 °C
same,ΔTm MR26 (26),[20],4.1 °C
